Usually DC50 stands for the concentration at which degradation of the target reaches its halfway point.

We go through 14 compounds from US12161722B2, “Bifunctional heterocyclic compound having BTK degradation function via ubiquitin proteasome pathway, and use thereof” (KOREA RESEARCH INSTITUTE OF CHEMICAL TECHNOLOGY, priority 2021, dated 2024).

The target of this assay is T1, WT BTK protein (Homo sapiens, UniProt Q06187).
T1 construct: measured for intracellular BTK protein levels by Western blotting; endogenous in cells; host or cells: TMD-8 or RAMOS cells
T1 sequence (Q06187 whole entry): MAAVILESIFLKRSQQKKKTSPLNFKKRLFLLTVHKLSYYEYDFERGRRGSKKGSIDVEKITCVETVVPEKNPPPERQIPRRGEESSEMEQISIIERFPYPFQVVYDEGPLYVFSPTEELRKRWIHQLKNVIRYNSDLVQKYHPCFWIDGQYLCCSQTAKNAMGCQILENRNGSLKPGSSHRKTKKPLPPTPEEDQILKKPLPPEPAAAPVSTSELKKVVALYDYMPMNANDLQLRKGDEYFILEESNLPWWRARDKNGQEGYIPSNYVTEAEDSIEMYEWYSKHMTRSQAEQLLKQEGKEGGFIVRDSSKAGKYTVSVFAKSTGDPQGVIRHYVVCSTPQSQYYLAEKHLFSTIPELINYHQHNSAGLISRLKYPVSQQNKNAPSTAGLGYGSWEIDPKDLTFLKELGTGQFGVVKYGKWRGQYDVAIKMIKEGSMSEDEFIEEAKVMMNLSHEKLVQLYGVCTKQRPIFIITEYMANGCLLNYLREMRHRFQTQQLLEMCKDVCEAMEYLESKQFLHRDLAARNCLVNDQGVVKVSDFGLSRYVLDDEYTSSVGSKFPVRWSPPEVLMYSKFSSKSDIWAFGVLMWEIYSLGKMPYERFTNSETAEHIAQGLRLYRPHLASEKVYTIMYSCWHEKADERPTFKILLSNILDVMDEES
Put plainly: BTK protein degradation assay (Western blotting), WT BTK. The class given is cell-based. Conditions: concentration range accounting for 50% degradation of WT BTK protein, TMD-8 or RAMOS cells, 24 hours. As for the experimental part:
TMD-8, RAMOS, or 293T BTK MUT (C481S) cells were treated with the synthesized compounds and measured for intracellular BTK protein levels by Western blotting. The protocol of the experiment using TMD-8 cells is as follows.
TMD-8 cells were resuspended in an RPMI1640 medium (Hyclone, SH30027.01, 10% FBS (Hyclone, SV30207.02), 1% penicillin-streptomycin (Welgene, LS 202-02) and the cell suspension was seeded at a density of 1×10^6 cells/mL in an amount of 1 mL per well into 12-well plates.
The 12-well plates were treated as follows. A 10 mM stock was 1/10 diluted in series with DMSO ([…]) to form final concentrations of 10, 1, 0.1, 0.01, 0.001, and 0.0001 mM. The compounds with such concentrations were applied to cells, followed by harvesting the cells 24 hours later. For a negative control, a 1/10 dilution of DMSO in the medium (3 mL DMSO+27 mL medium) was used.
The 1-mL cell culture in each well was passed many times through a pipette and then transferred into a 1.5-mL microtube before centrifugation (500 g, 5 min, 4° C.). The supernatant was discarded and the cell pellet was washed with PBS. After centrifugation (500 g, 5 min, 4° C.) again, the supernatant was discarded and the cell pellet was taken.
A lysis buffer was prepared as follows. RIPA buffer (Biosesang, RC2038-050-00)+0.5 mM PMSF (SIGMA, P7626)+1×Protease/Phosphatase Inhibitor (Cell signaling, 5872S) was added in an amount […] per well and left for 30 minutes on ice (vortexing at 0 and 30 minutes) before sonication (5 cycles of pulse for 10 seconds and rest for 30 seconds, 70% amplification). The supernatant obtained by centrifugation (15000 g, 15 min, 4° C.) was transferred into a new microtube. Cells in each well of 96-well plates were 1/2 diluted with the RIPA buffer and incubated at 37° C. for 30 minutes with […] of a 50:1 mixture of BCA reagents A and B in BCA Protein Assay Kit (iNtRON, 21071). After being cooled for 10 minutes, the 96-well plates were measured for absorbance at 562 nm on the BioTek, SYNERGY H1 microplate reader. Samples were prepared by protein quantification based on the absorbance measurements and then boiled at 70° C. for 10 minutes. The sample buffer used in the case was prepared by mixing a NuPAGE or a Bolt 4× sample buffer (Invitrogen) and its 10× sample reducing agent depending on the gel to be used, and protein dilution was made in a RIPI buffer.
The samples were loaded in the same amount into a NuPAGE or Bolt Bis-tris 4-12% gradient gel and allowed to run therein (200 V, 35 minutes). The separated proteins were transferred onto a […] NC membrane, using Trans-blot Turbo (BIO-RAD) (1.3 A constant, 25V limit, 15 minutes). The membrane was blocked at room temperature for 1 hour with skim milk or Intercept Blocking Buffer (LI-COR, 927-60001):0.1% TBST=1:1. The membrane was incubated with Anti BTK Rabbit (1:1,000 in 5% skim milk/0.2% TBST, size: 77 kDa, Cell signaling Technology) at 4° C. overnight O/N or at room temperature for 2 hours and with Anti GAPDH Rabbit (1:10,000 in 5% BSA/0.2% TBST, size: 36 kDa, GENETEX) and Anti β-actin mouse (1:10,000 in 5% BSA/0.2% TBST, RT, size: 43 kDa, GENETEX) at room temperature for 1 or 3 hours. Then, the membrane was washed three times with 0.5% TBST for 5 minutes each time before incubation with the second antibody Anti-Rabbit IgG (1:5,000 in 5% Skim milk/TBST, CST), IRDye® 800CW Goat anti-Rabbit IgG Secondary Antibody (1:10,000 in 5% skim/TBST, RT 45 min), or IRDye® 680RD Goat anti-Mouse IgG Secondary Antibody (1:10,000 in 5% skim/TBST, RT 45 min) for 45 minutes at room temperature in a rocker. The membrane was washed five times with 0.5% TBST for 5 minutes in each time, followed by detection with LI-COR, Odyssey. In this regard, the detection proceeded, as it was, for house-keeping genes while using SuperSignal West Pico PLUS Chemiluminescent Substrate or SuperSignal West femto Maximum Sensitivity Substrate for BTK detection. […]
On to `Cc1cccc(C)c1Nc1nn(C)c2nc(Nc3ccc4c(c3)CN(CC3CCN(CC5CN(c6ccc7c(c6)C(=O)N(C6CCC(=O)NC6=O)C7=O)C5)CC3)CC4)ncc12` (centres unmarked) [Compound 50, 5-(3-((4-((7-((3-((2,6-Dimethylphenyl)amino)-1-methyl-1H-pyrazolo[3,4-d]pyrimidin-6-yl)amino)-3,4-dihydroisoquinolin-2 (1H)-yl)methyl)piperidin-1-yl)methyl)azetidin-1-yl)-2-(2,6-dioxopiperidin-3-yl)isoindoline-1,3-dione], for which the DC50 was in the range of 10 to 1000 nM.
To `Cc1cccc(C)c1Nc1nn(C)c2nc(Nc3ccc4c(c3)CN(CC3CN(C(=O)CNc5ccc6c(c5)C(=O)N(C5CCC(=O)NC5=O)C6=O)C3)CC4)ncc12` (centres unmarked) [Compound 51, 5-((2-(3-((7-((3-((2,6-Dimethylphenyl)amino)-1-methyl-1H-pyrazolo[3,4-d]pyrimidin-6-yl)amino)-3,4-dihydroisoquinolin-2 (1H)-yl)methyl)azetidin-1-yl)-2-oxoethyl)amino)-2-(2,6-dioxopiperidin-3-yl)isoindoline-1,3-dione] belongs 0.1 to 10 nM.
Under `Cc1cccc(C)c1Nc1nn(C)c2nc(Nc3ccc4c(c3)CN(CC3CCN(C(=O)CNc5ccc6nnn(C7CCC(=O)NC7=O)c(=O)c6c5)CC3)CC4)ncc12` (centres unmarked) [Compound 52, 3-(6-((2-(4-((7-((3-((2,6-Dimethylphenyl)amino)-1-methyl-1H-pyrazolo[3,4-d]pyrimidin-6-yl)amino)-3,4-dihydroisoquinolin-2 (1H)-yl)methyl)piperidin-1-yl)-2-oxoethyl)amino)-4-oxobenzo[d][1,2,3]triazin-3 (4H)-yl)piperidin-2,6-one] stands 0.1 to 10 nM; under `Cc1cccc(C)c1Nc1nn(C)c2nc(Nc3ccc4c(c3)CN(CC3CCN(C(=O)CCc5cccc6c5CN(C5CCC(=O)NC5=O)C6=O)CC3)CC4)ncc12` (centres unmarked) [Compound 64, 3-(4-(3-(4-((7-((3-((2,6-Dimethylphenyl)amino)-1-methyl-1H-pyrazolo[3,4-d]pyrimidin-6-yl)amino)-3,4-dihydroisoquinolin-2 (1H)-yl)methyl)piperidin-1-yl)-3-oxopropyl)-1-oxoisoindolin-2-yl)piperidin-2,6-one], 0.1 to 10 nM.
For `Cc1cccc(C)c1Nc1nn(C)c2nc(Nc3ccc4c(c3)CN(C(=O)C3CCN(c5ccc6c(c5)C(=O)N(C5CCC(=O)NC5=O)C6=O)C3)CC4)ncc12` (centres unmarked) [Compound 66], the half-maximal degradation concentration (DC50) lay in the range of 10 to 1000 nM.
To `Cc1cccc(C)c1Nc1nn(C)c2nc(Nc3ccc4c(c3)CN(C(=O)C3CCN(C(=O)C5CCN(c6ccc7c(c6)C(=O)N(C6CCC(=O)NC6=O)C7=O)CC5)C3)CC4)ncc12` (centres unmarked) [Compound 67, 5-(4-(3-(7-((3-((2,6-Dimethylphenyl)amino)-1-methyl-1H-pyrazolo[3,4-d]pyrimidin-6-yl)amino)-1,2,3,4-tetrahydroisoquinoline-2-carbonyl)pyrrolidine-1-carbonyl)piperidin-1-yl)-2-(2,6-dioxopiperidin-3-yl)isoindoline-1,3-dione] belongs 10 to 1000 nM; to `Cc1cccc(C)c1Nc1nn(C)c2nc(Nc3ccc4c(c3)CN(C(=O)C3CCN(C(=O)CNc5ccc6c(=O)n(C7CCC(=O)NC7=O)nnc6c5)CC3)CC4)ncc12` (centres unmarked) [Compound 68, 3-(7-((2-(4-(7-((3-((2,6-Dimethylphenyl)amino)-1-methyl-1H-pyrazolo[3,4-d]pyrimidin-6-yl)amino)-1,2,3,4-tetrahydroisoquinoline-2-carbonyl)piperidin-1-yl)-2-oxoethyl)amino)-4-oxobenzo[d][1,2,3]triazin-3 (4H)-yl)piperidin-2,6-one], 10 to 1000 nM; to `Cc1cccc(C)c1Nc1nn(C)c2nc(Nc3ccc4c(c3)CN(C(=O)C3CCN(c5ccc6c(=O)n(C7CCC(=O)NC7=O)nnc6c5)CC3)CC4)ncc12` (centres unmarked) [Compound 69, 3-(7-(4-(7-((3-((2,6-Dimethylphenyl)amino)-1-methyl-1H-pyrazolo[3,4-d]pyrimidin-6-yl)amino)-1,2,3,4-tetrahydroisoquinoline-2-carbonyl)piperidin-1-yl)-4-oxobenzo[d][1,2,3]triazin-3 (4H)-yl)piperidin-2,6-one], 10 to 1000 nM.
On to `Cc1cccc(C)c1Nc1nn(C)c2nc(Nc3ccc4c(c3)CN(C(=O)CNc3ccc5c(c3)C(=O)N(C3CCC(=O)NC3=O)C5=O)CC4)ncc12` (centres unmarked) [Compound 72, 5-((2-(7-((3-((2,6-Dimethylphenyl)amino)-1-methyl-1H-pyrazolo[3,4-d]pyrimidin-6-yl)amino)-3,4-dihydroisoquinolin-2 (1H)-yl)-2-oxoethyl)amino)-2-(2,6-dioxopiperidin-3-yl)isoindoline-1,3-dione], for which the 50% degradation concentration (DC50) was in the range of 10 to 1000 nM.
Turning to `Cc1cccc(C)c1Nc1nn(C)c2nc(Nc3ccc4c(c3)CN(CC3CCN(c5ccc6c(c5)C(=O)N(C5CCC(=O)NC5=O)C6=O)CC3)C4)ncc12` (centres unmarked) [Compound 73, 5-(4-((5-((3-((2,6-Dimethylphenyl)amino)-1-methyl-1H-pyrazolo[3,4-d]pyrimidin-6-yl)amino)isoindolin-2-yl)methyl)piperidin-1-yl)-2-(2,6-dioxopiperidin-3-yl)isoindoline-1,3-dione], the DC50 fell in the range of 10 to 1000 nM.
Turning to `Cc1cccc(C)c1Nc1nn(C)c2nc(Nc3ccc4c(c3)CN(CC3CCN(c5ccc6c(=O)n(C7CCC(=O)NC7=O)nnc6c5)CC3)C4)ncc12` (centres unmarked) [Compound 74, 3-(7-(4-((5-((3-((2,6-Dimethylphenyl)amino)-1-methyl-1H-pyrazolo[3,4-d]pyrimidin-6-yl)amino)isoindolin-2-yl)methyl)piperidin-1-yl)-4-oxobenzo[d][1,2,3]triazin-3 (4H)-yl)piperidin-2,6-one], the 50% degradation concentration (DC50) was 10 to 1000 nM.
To `Cc1cccc(C)c1Nc1nn(C)c2nc(Nc3ccc4c(c3)C(C)N(CC3CCN(c5ccc6c(c5)C(=O)N(C5CCC(=O)NC5=O)C6=O)CC3)CC4)ncc12` (centres unmarked) [Compound 75, 5-(4-((7-((3-((2,6-Dimethylphenyl)amino)-1-methyl-1H-pyrazolo[3,4-d]pyrimidin-6-yl)amino)-1-methyl-3,4-dihydroisoquinolin-2 (1H)-yl)methyl)piperidin-1-yl)-2-(2,6-dioxopiperidin-3-yl)isoindoline-1,3-dione] belongs 10 to 1000 nM; to `COCCOc1cc(C)c(Nc2nn(C)c3nc(Nc4ccc5c(c4)CN(CC4CCN(c6ccc7c(c6)C(=O)N(C6CCC(=O)NC6=O)C7=O)CC4)CC5)ncc23)c(C)c1` (centres unmarked) [Compound 76, 2-(2,6-Dioxopiperidin-3-yl)-5-(4-((7-((3-((4-(2-methoxyethoxy)-2,6-dimethylphenyl)amino)-1-methyl-1H-pyrazolo[3,4-d]pyrimidin-6-yl)amino)-3,4-dihydroisoquinolin-2 (1H)-yl)methyl)piperidin-1-yl)isoindoline-1,3-dione], 10 to 1000 nM; to `Cc1cccc(C)c1Nc1nn(C)c2nc(Nc3ccc4c(c3)CN(CC3CCN(C(=O)CNc5ccc6c(c5)CN(C5CCC(=O)NC5=O)C6=O)CC3)CC4)ncc12` (centres unmarked) [Compound 80, 3-(5-((2-(4-((7-((3-((2,6-Dimethylphenyl)amino)-1-methyl-1H-pyrazolo[3,4-d]pyrimidin-6-yl)amino)-3,4-dihydroisoquinolin-2 (1H)-yl)methyl)piperidin-1-yl)-2-oxoethyl)amino)-1-oxoisoindolin-2-yl)piperidin-2,6-one], 0.1 to 10 nM.
